Literature values as cited in patent publication US20240350592A1, “COMPOSITION AND METHODS OF TREATMENT USING […]-ENHANCED SUPPLEMENTATION” (Xygenyx Inc., priority 2023, published 2024).
Square brackets hold non-standard residues; d marks the D form. Peptide text beside a SMILES is read from it. Cit = NC(=O)NCCC[C@H](N)C(=O)O

Legend:
[1] = test system: skin; conditions: topical formulations; within four weeks of treatment
[2] = in vivo
[3] = compared to α-tocopherol taken as 1.0
[4] = test system: markers of inflammation; conditions: individuals with metabolic syndrome
[5] = even when dietary intake occurs in equal portions
[6] = test system: wide dynamic range neurons in the ventroposterolateral nucleus of the thalamus
[7] = test system: rheumatoid arthritis; conditions: arthritic subjects
[8] = test system: skin; conditions: topical, concentrations 0.5-5%
[9] = test system: coronary disease; conditions: dietary supplementation, doses up to 400 IU/day
[10] = test system: F2-isoprostane; conditions: doses of 1600-3200 IU/day
[11] = test system: neurodegenerative diseases such as Alzheimer's Syndrome or dementia; conditions: dietary supplementation, doses up to 400 IU/day; controlled trials
[12] = test system: depression; conditions: patients who did not respond to traditional antidepressant medications
[13] = single penetration enhancer
[14] = in vivo; remark: listed apart in the source

With CC[C@H](C)[C@H](NC(=O)[C@H](CC(=O)O)NC(=O)[C@@H](N)CCCCN)C(=O)N[C@@H](CCCNC(N)=O)C(N)=O [tripeptide-10 citrulline, Tripeptide-10 citrulline] (H-KDI[Cit]-NH2) as the molecule, how does the improvement of suppleness [1] read?
Its improvement of suppleness is no more than 54%.

With CCNC(=O)CC[C@H](N)C(=O)O [Theanine] as the molecule, how does the “dose generally considered safe and well-tolerated” value [2] read?
Its value is “up to 400 mg per day”.

With Cc1cc(O)cc2c1O[C@](C)(CCC[C@H](C)CCC[C@H](C)CCCC(C)C)CC2 [δ-tocopherol] as the molecule, how does the relative biological activity [3] read?
The relative biological activity was 0.03.

What about the “markers of inflammation in the blood” value [4] of the same molecule?
The value was “reduced”.

With C/C(=C\CO)CCC[C@H](C)CCC[C@H](C)CCCC(C)C [Phytol] as the molecule, how does the solubility in water read?
The solubility in water was “nearly insoluble in water”.

What does the source list for Cc1c(O)cc2c(c1C)O[C@](C)(CCC[C@H](C)CCC[C@H](C)CCCC(C)C)CC2 [γ-tocopherol]?
concentration in vivo relative to α-tocopherol [5]: roughly 10%; relative biological activity [3]: 0.1

For CCCCCc1cc(O)c2c(c1)OC(C)(C)C1CCC(C)=CC21 (stereo not shown) [THC, Δ-9-tetrahydrocannabinol], which “power in mediating pain compared to morphine” value [6] is on record?
The value was “ten times more powerful than morphine”.

Which results are given for C=C1CC/C=C(\C)CC[C@@H]2[C@@H]1CC2(C)C [β-caryophyllene]?
number of circulating and articular leukocytes [7]: reduced; swelling of joints and lymph nodes [7]: reduced

Which “time of treatment to skin lightening effects” value [8] does the source give for C=CCCCCCCCCC(=O)N[C@@H](Cc1ccccc1)C(=O)O [UP, Undecylenoyl phenylalanine] here?
Its value is no less than 7 days.

With Cc1c(C)c2c(c(C)c1O)CC[C@@](C)(CCC[C@H](C)CCC[C@H](C)CCCC(C)C)O2 [α-tocopherol] as the molecule, how does the “reduction of the risk of coronary disease” value [9] read?
Its value is “up to 34%”.

What about the “blood plasma concentration of F2-isoprostane” value [10] of the same molecule?
Its value is “significantly lower”.

What about the “reduction of the risk of developing neurodegenerative diseases” value [11] of the same molecule?
The value was no more than 24%.

For Cc1cc(O)c(C)c2c1O[C@](C)(CCC[C@H](C)CCC[C@H](C)CCCC(C)C)CC2 [β-tocopherol], which relative biological activity [3] is on record?
The relative biological activity was 0.5.

For CN1c2c([nH]c(N)nc2=O)NCC1CNc1ccc(C(=O)N[C@@H](CCC(=O)O)C(=O)O)cc1 (stereo partly shown) [5-MTHF, 5-methyltetrahydrofolate], which symptoms of depression [12] is on record?
Its symptoms of depression is “improved”.

Which “factor of increase of transdermal drug uptake” value [13] does the source give for CC12CCC(CC1)C(C)(C)O2 [eucalyptol, 1,8-epoxy-p-menthane] here?
Its value is “more than 10”.

With “HGH: hormone comprising a peptide chain that is synthesized in the pituitary gland” as the molecule, how does the biological half-life [14] read?
Its biological half-life is 10-20 minutes.

Which “factor of increase of transdermal drug uptake” value [13] does the source give for CC(C)[C@@H]1CC[C@@H](C)C[C@H]1O [Menthol] here?
The value was no less than 10.
